Test results reported in the supplement of paper PMC10307832.

Experiments:
Assay in all cases: relative viability (nuclei count vs DMSO), 5 days (fraction); higher = more cells survive
[1] = compound: COc1cc2ncn(-c3cc(OCc4ccccc4C(F)(F)F)c(C(N)=O)s3)c2cc1OC + CS(=O)(=O)CCNCc1ccc(-c2ccc3ncnc(Nc4ccc(OCc5cccc(F)c5)c(Cl)c4)c3c2)o1 [Lapatinib] (partner 2 µM)
In short: (§1)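 For relative viability, nuclei counts in treated wells were divided by those in vehicle wells. Lung cancer cell lines had been pin-tool dosed in 1536-well plates the day after seeding and cultured for 5 days, then fixed and stained in one step (final 0.05% Triton X-100, 1% formaldehyde, 1 ug/ml Hoechst) and imaged at 4×. Doses were one drug alone or a fixed anchor-drug dose plus five library-drug doses (not always all listed) in √10 steps, and values are duplicate-plate medians.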

[2] = compound: COc1cc2ncn(-c3cc(OCc4ccccc4C(F)(F)F)c(C(N)=O)s3)c2cc1OC + C[C@@H](Oc1cc(-c2cnn(C3CCNCC3)c2)cnc1N)c1c(Cl)ccc(F)c1Cl [Crizotinib] (partner 1 µM)
In short: as §1

[3] = compound: COc1cc2ncn(-c3cc(OCc4ccccc4C(F)(F)F)c(C(N)=O)s3)c2cc1OC + Cc1cc(Nc2cc(N3CCN(C)CC3)nc(Sc3ccc(NC(=O)C4CC4)cc3)n2)n[nH]1 [Tozasertib] (partner 0.1 µM)
In short: as §1

[4] = compound: COc1cc2ncn(-c3cc(OCc4ccccc4C(F)(F)F)c(C(N)=O)s3)c2cc1OC + Nc1ncn([C@H]2C[C@H](O)[C@@H](CO)O2)c(=O)n1 [Decitabine] (partner 2 µM)
In short: as §1

Cell Line	relative viability ([1]; first compound 0.05 µM)	relative viability ([1]; first compound 0.1581 µM)	relative viability ([1]; first compound 0.5 µM)	relative viability ([1]; first compound 1.581 µM)	relative viability ([1]; first compound 5 µM)	relative viability ([2]; first compound 0.05 µM)	relative viability ([2]; first compound 0.1581 µM)	relative viability ([2]; first compound 0.5 µM)	relative viability ([2]; first compound 1.581 µM)	relative viability ([2]; first compound 5 µM)	relative viability ([3]; first compound 0.05 µM)	relative viability ([3]; first compound 0.1581 µM)	relative viability ([3]; first compound 0.5 µM)	relative viability ([3]; first compound 1.581 µM)	relative viability ([3]; first compound 5 µM)	relative viability ([4]; first compound 0.05 µM)	relative viability ([4]; first compound 0.1581 µM)	relative viability ([4]; first compound 0.5 µM)	relative viability ([4]; first compound 1.581 µM)	relative viability ([4]; first compound 5 µM)
LC-2-ad	0.811	0.592	0.511	0.119	0.0933	0.485	0.422	0.295	0.212	0.287	0.439	0.512	0.273	0.359	0.367	0.824	0.761	0.63	0.203	0.2
LCLC-97TM1	0.802	0.893	0.343	0.175	0.161	0.419	0.331	0.165	0.152	0.145	0.254	0.246	0.148	0.17	0.162	0.246	0.238	0.196	0.139	0.114
LK-2	1.01	0.841	0.437	0.217	0.222	0.247	0.247	0.245	0.209	0.204	0.177	0.174	0.163	0.162	0.195	0.271	0.236	0.133	0.131	0.0977
LOU-NH91	0.768	0.793	0.676	0.444	0.499	0.772	0.779	0.626	0.483	0.459	0.653	0.641	0.399	0.29	0.31	0.841	0.84	0.761	0.513	0.344
LU99A	1	0.948	0.577	0.226	0.183	0.59	0.526	0.579	0.244	0.197	0.224	0.246	0.247	0.241	0.246	0.767	0.825	0.604	0.194	0.191
LXF-289	0.912	0.709	0.647	0.147	0.0707	0.8	0.615	0.453	0.147	0.0723	0.192	0.197	0.145	0.129	0.107	0.434	0.363	0.274	0.129	0.108
NCI-H23	1.22	0.789	0.451	0.159	0.141	0.754	0.362	0.258	0.127	0.121	0.349	0.269	0.218	0.166	0.13	0.296	0.281	0.176	0.191	0.151
NCI-H322M	0.572	0.578	0.548	0.302	0.257	0.741	0.94	0.724	0.419	0.466	0.492	0.475	0.511	0.547	0.495	0.676	0.73	0.581	0.446	0.415
NCI-H358	0.553	0.435	0.371	0.175	0.145	0.481	0.575	0.164	0.132	0.213	0.0899	0.0976	0.118	0.0944	0.0929	0.228	0.179	0.219	0.115	0.138
NCI-H460	1.03	0.592	0.486	0.0094	0.0099	1.14	0.899	0.0648	0.0097	0.0254	0.497	0.294	0.0449	0.0359	0.0337	0.495	0.15	0.257	0.0216	0.0165
NCI-H520	1.01	0.814	0.387	0.172	0.149	0.984	0.513	0.19	0.148	0.16	0.466	0.421	0.44	0.309	0.384	0.482	0.525	0.261	0.217	0.219
NCI-H596	1.1	1.22	0.911	0.586	0.33	0.959	0.965	0.991	0.814	0.401	0.867	0.843	0.705	0.383	0.359	1.6	1.13	0.935	0.817	0.425
NCI-H647	0.97	0.935	0.448	0.0772	0.0798	1.01	0.788	0.224	0.113	0.108	0.0011	0.324	0.218	0.125	0.104	0.381	0.275	0.168	0.131	0.107
NCI-H650	0.903	1.2	0.531	0.171	0.247	0.714	0.684	0.4	0.15	0.289	0.66	0.671	0.35	0.173	0.237	0.329	0.309	0.261	0.175	0.236
NCI-H661	0.431	0.517	0.467	0.18	0.251	0.869	0.937	0.85	0.572	0.855	0.37	0.348	0.327	0.301	0.321	0.566	0.496	0.363	0.277	0.237
NCI-H727	0.803	0.694	0.541	0.338	0.296	0.707	0.901	0.58	0.247	0.266	0.639	0.565	0.659	0.445	0.42	1.03	0.927	0.825	0.616	0.568
